The term IC50 denotes the concentration that gives 50% inhibition.

Positions of bridges follow the written chain, without caps; N, C: chain ends. Non-standard residues stand in square brackets, D forms with d. Residues, ends and D or L forms follow the SMILES beside them. *: point of attachment. Phe(4-COOH) = N[C@@H](Cc1ccc(C(=O)O)cc1)C(=O)O; Bip = N[C@@H](Cc1ccc(-c2ccccc2)cc1)C(=O)O; NMeF = CN[C@@H](Cc1ccccc1)C(=O)O; Carboxymethyl = O=C(O)C*; NMeA = CN[C@@H](C)C(=O)O; Orn = NCCC[C@H](N)C(=O)O; Dab = NCC[C@H](N)C(=O)O

For the assay, the target named is T1, human PD-1 (Jurkat-PD-1 cells) / PE-labeled human PD-L1-Ig (Homo sapiens, UniProt Q15116).
T1 construct: expressed in transfected cells; host or cells: Jurkat cell line over-expressing human PD-1
T1 sequence (Q15116 25-288): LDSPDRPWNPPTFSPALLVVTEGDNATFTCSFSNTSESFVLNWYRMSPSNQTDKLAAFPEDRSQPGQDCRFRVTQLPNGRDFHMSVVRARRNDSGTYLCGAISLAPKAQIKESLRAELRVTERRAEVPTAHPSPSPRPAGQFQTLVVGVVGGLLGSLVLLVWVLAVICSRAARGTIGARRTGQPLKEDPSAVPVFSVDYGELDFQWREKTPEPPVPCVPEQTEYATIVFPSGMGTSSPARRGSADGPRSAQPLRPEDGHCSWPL
Description: Jurkat-PD-1 Cell Binding High-Content Screening Assay (CBA); Jurkat hPD1-PDL1 assay. The settings on record: Jurkat cell line over-expressing human PD-1; PE-labeled PD-L1-Ig 20 nM final; compound incubated 2 hours at 37° C.; read-out: Jurkat HPD1-PDL1 IC50. A digest of the protocol: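 Compound was added to Jurkat-PD-1 cells in DMEM plus 10% fetal calf serum and incubated 2 hours at 37° C. Binding of phycoerythrin-conjugated PD-L1-Ig (20 nM final) to the cells was imaged.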
Turning to `CC(C)C[C@@H]1NC(=O)CSC[C@@H](C(=O)NCC(N)=O)NC(=O)[C@H](CO)NC(=O)[C@H](C(C)C)NC(=O)[C@H](CC(C)C)NC(=O)[C@H](CCCNC(=N)N)NC(=O)[C@H](Cc2ccccc2)N(C)C(=O)[C@H](C)N(C)C(=O)[C@H](CCCN)NC(=O)[C@H](Cc2ccc(-c3ccccc3)cc2)NC(=O)[C@H](C(C)C)NC(=O)[C@H](Cc2c[nH]c3ccccc23)NC(=O)[C@H](CC(=O)O)NC(=O)[C@H](Cc2ccc(O)cc2)NC1=O` [Example 1290] ({CH2CO}-LYDWV[Bip][Orn][NMeA][NMeF]RLVSCG-NH2; thioether N-14), the half-maximal inhibitory concentration (IC50) stood at 140 nM.
On to `CC(C)C[C@@H]1NC(=O)[C@H](CCCNC(=N)N)NC(=O)[C@H](Cc2ccccc2)N(C)C(=O)[C@H](C)N(C)C(=O)[C@H](CCCNC(=N)N)NC(=O)[C@H](Cc2ccc(-c3ccccc3)cc2)NC(=O)[C@H](C(C)C)NC(=O)[C@H](Cc2c[nH]c3ccccc23)NC(=O)[C@H](CC(=O)O)NC(=O)[C@H](Cc2ccc(C(=O)O)cc2)NC(=O)[C@H](Cc2cnc[nH]2)NC(=O)CSC[C@@H](C(=O)NCC(N)=O)NC(=O)[C@H](CO)NC(=O)[C@H](C(C)C)NC1=O` [Example 1291] ({CH2CO}-H[Phe(4-COOH)]DWV[Bip]R[NMeA][NMeF]RLVSCG-NH2; thioether N-14), for which the IC50 was found to be 90 nM.
Consider `CC(C)C[C@@H]1NC(=O)[C@H](CCCNC(=N)N)NC(=O)[C@H](Cc2ccccc2)N(C)C(=O)[C@H](C)N(C)C(=O)[C@H](CCCN)NC(=O)[C@H](Cc2ccc(-c3ccccc3)cc2)NC(=O)[C@H](C(C)C)NC(=O)[C@H](Cc2c[nH]c3ccccc23)NC(=O)[C@H](CC(=O)O)NC(=O)[C@H](Cc2ccc(O)cc2)NC(=O)[C@H](Cc2cnc[nH]2)NC(=O)CSC[C@@H](C(=O)NCC(N)=O)NC(=O)[C@H](CO)NC(=O)[C@H](C(C)C)NC1=O` [Example 1292] ({CH2CO}-HYDWV[Bip][Orn][NMeA][NMeF]RLVSCG-NH2; thioether N-14), for which the IC50 came to 90 nM.
Take `CC(C)C[C@@H]1NC(=O)[C@H](CCCNC(=N)N)NC(=O)[C@H](Cc2ccccc2)N(C)C(=O)[C@H](C)N(C)C(=O)[C@H](CCCN)NC(=O)[C@H](Cc2ccc(-c3ccccc3)cc2)NC(=O)[C@H](C(C)C)NC(=O)[C@H](Cc2c[nH]c3ccccc23)NC(=O)[C@H](CC(=O)O)NC(=O)[C@H](Cc2ccc(O)cc2)NC(=O)[C@H](CCC(N)=O)NC(=O)CSC[C@@H](C(=O)NCC(N)=O)NC(=O)[C@H](CO)NC(=O)[C@H](C(C)C)NC1=O` [Example 1294] ({CH2CO}-QYDWV[Bip][Orn][NMeA][NMeF]RLVSCG-NH2; thioether N-14): the IC50 was 140 nM.
Consider `CC(C)C[C@@H]1NC(=O)CSC[C@@H](C(=O)NCC(N)=O)NC(=O)[C@H](CO)NC(=O)[C@H](C(C)C)NC(=O)[C@H](CC(C)C)NC(=O)[C@H](CCCNC(=N)N)NC(=O)[C@H](Cc2ccccc2)N(C)C(=O)[C@H](C)N(C)C(=O)[C@H](CCCNC(=N)N)NC(=O)[C@H](Cc2ccc(-c3ccccc3)cc2)NC(=O)[C@H](C(C)C)NC(=O)[C@H](Cc2c[nH]c3ccccc23)NC(=O)[C@H](CC(=O)O)NC(=O)[C@H](Cc2ccc(C(=O)O)cc2)NC1=O` [Example 1295] ({CH2CO}-L[Phe(4-COOH)]DWV[Bip]R[NMeA][NMeF]RLVSCG-NH2; thioether N-14), for which the IC50 worked out at 210 nM.
As for `CC(C)C[C@@H]1NC(=O)[C@H](CCCNC(=N)N)NC(=O)[C@H](Cc2ccccc2)N(C)C(=O)[C@H](C)N(C)C(=O)[C@H](CCCNC(=N)N)NC(=O)[C@H](Cc2ccc(-c3ccccc3)cc2)NC(=O)[C@H](C(C)C)NC(=O)[C@H](Cc2c[nH]c3ccccc23)NC(=O)[C@H](CC(=O)O)NC(=O)[C@H](Cc2ccc(O)cc2)NC(=O)[C@H](CCC(N)=O)NC(=O)CSC[C@@H](C(=O)N[C@@H](C)C(N)=O)NC(=O)[C@H](CO)NC(=O)[C@H](C(C)C)NC1=O` [Example 1296] ({CH2CO}-QYDWV[Bip]R[NMeA][NMeF]RLVSCA-NH2; thioether N-14), the half-maximal inhibitory concentration (IC50) was 140 nM.
On to `CC(C)C[C@@H]1NC(=O)[C@H](CCCNC(=N)N)NC(=O)[C@H](Cc2ccccc2)N(C)C(=O)[C@H](C)N(C)C(=O)[C@H](CCCNC(=N)N)NC(=O)[C@H](Cc2ccc(-c3ccccc3)cc2)NC(=O)[C@H](C(C)C)NC(=O)[C@H](Cc2c[nH]c3ccccc23)NC(=O)[C@H](CC(=O)O)NC(=O)[C@H](Cc2ccc(C(=O)O)cc2)NC(=O)[C@H](CCC(N)=O)NC(=O)CSC[C@@H](C(=O)NCC(N)=O)NC(=O)[C@H](CO)NC(=O)[C@H](C(C)C)NC1=O` [Example 1297] ({CH2CO}-Q[Phe(4-COOH)]DWV[Bip]R[NMeA][NMeF]RLVSCG-NH2; thioether N-14), for which the IC50 was 420 nM.
With `CC(C)C[C@@H]1NC(=O)[C@H](CCCNC(=N)N)NC(=O)[C@H](Cc2ccccc2)N(C)C(=O)[C@H](C)N(C)C(=O)[C@H](CCCNC(=N)N)NC(=O)[C@H](Cc2ccc(-c3ccccc3)cc2)NC(=O)[C@H](C(C)C)NC(=O)[C@H](Cc2c[nH]c3ccccc23)NC(=O)[C@H](CC(=O)O)NC(=O)[C@H](Cc2ccc(OCC(=O)O)cc2)NC(=O)[C@H](Cc2ccc(C(=O)O)cc2)NC(=O)CSC[C@@H](C(=O)NCC(N)=O)NC(=O)[C@H](CO)NC(=O)[C@H](C(C)C)NC1=O` [Example 1300] ({CH2CO}-[Phe(4-COOH)]Y(Carboxymethyl)DWV[Bip]R[NMeA][NMeF]RLVSCG-NH2; thioether N-14), the concentration for half-maximal inhibition (IC50) is 120 nM.
In the case of `CC(C)C[C@@H]1NC(=O)[C@H](CCCNC(=N)N)NC(=O)[C@H](Cc2ccccc2)N(C)C(=O)[C@H](C)N(C)C(=O)[C@H](CCCNC(=N)N)NC(=O)[C@H](Cc2ccc(-c3ccccc3)cc2)NC(=O)[C@H](C(C)C)NC(=O)[C@H](Cc2c[nH]c3ccccc23)NC(=O)[C@H](CC(=O)O)NC(=O)[C@H](Cc2ccc(O)cc2)NC(=O)[C@H](CC(N)=O)NC(=O)CSC[C@@H](C(=O)N[C@@H](C)C(N)=O)NC(=O)[C@H](CO)NC(=O)[C@H](C(C)C)NC1=O` [Example 1301] ({CH2CO}-NYDWV[Bip]R[NMeA][NMeF]RLVSCA-NH2; thioether N-14), the IC50 worked out at 150 nM.
In the case of `CC(C)C[C@@H]1NC(=O)[C@H](CCCNC(=N)N)NC(=O)[C@H](Cc2ccccc2)N(C)C(=O)[C@H](C)N(C)C(=O)[C@H](CCCNC(=N)N)NC(=O)[C@H](Cc2ccc(-c3ccccc3)cc2)NC(=O)[C@H](C(C)C)NC(=O)[C@H](Cc2c[nH]c3ccccc23)NC(=O)[C@H](CC(=O)O)NC(=O)[C@H](Cc2ccc(O)cc2)NC(=O)[C@H](Cc2cnc[nH]2)NC(=O)CSC[C@@H](C(=O)N[C@@H](C)C(N)=O)NC(=O)[C@H](CO)NC(=O)[C@H](C(C)C)NC1=O` [Example 1302] ({CH2CO}-HYDWV[Bip]R[NMeA][NMeF]RLVSCA-NH2; thioether N-14), the half-maximal inhibitory concentration (IC50) came out at 350 nM.
In the case of `CC(C)C[C@@H]1NC(=O)[C@H](CCN)NC(=O)[C@H](Cc2ccccc2)N(C)C(=O)[C@H](C)N(C)C(=O)[C@H](CCCNC(=N)N)NC(=O)[C@H](Cc2ccc(-c3ccccc3)cc2)NC(=O)[C@H](C(C)C)NC(=O)[C@H](Cc2c[nH]c3ccccc23)NC(=O)[C@H](CC(=O)O)NC(=O)[C@H](Cc2ccc(O)cc2)NC(=O)[C@H](CC(N)=O)NC(=O)CSC[C@@H](C(=O)N[C@@H](C)C(N)=O)NC(=O)[C@H](CO)NC(=O)[C@H](C(C)C)NC1=O` [Example 1303] ({CH2CO}-NYDWV[Bip]R[NMeA][NMeF][Dab]LVSCA-NH2; thioether N-14) it was 70 nM.

(Values after patent US20240360178A1, “MACROCYCLIC IMMUNOMODULATORS” (Bristol-Myers Squibb Company, priority 2021, published 2024).)
